Experimental data reported in patent publication US7022716B2, “Cyclic amine phenyl beta-3 adrenergic receptor agonists” (Wyeth, priority 2000, dated 2006).

What was measured:
[1] = molecular target: T1, human β3 adrenergic receptor (Homo sapiens, UniProt P13945); assay: cAMP (SPA) response in CHO cells transfected with human β3 adrenergic receptor; format: cell-based; set-up: key: fraction of maximal isoproterenol (10^-5 M) response; details: maximal response relative to maximal response of isoproterenol at 10^-5 M
T1 construct: Full length β3 AR clones (402 amino acids) containing the last 6 amino acids of hβ3-AR are prepared; expressed in transfected cells; host or cells: CHO (Chinese hamster ovary) cells
T1 sequence (P13945 whole entry): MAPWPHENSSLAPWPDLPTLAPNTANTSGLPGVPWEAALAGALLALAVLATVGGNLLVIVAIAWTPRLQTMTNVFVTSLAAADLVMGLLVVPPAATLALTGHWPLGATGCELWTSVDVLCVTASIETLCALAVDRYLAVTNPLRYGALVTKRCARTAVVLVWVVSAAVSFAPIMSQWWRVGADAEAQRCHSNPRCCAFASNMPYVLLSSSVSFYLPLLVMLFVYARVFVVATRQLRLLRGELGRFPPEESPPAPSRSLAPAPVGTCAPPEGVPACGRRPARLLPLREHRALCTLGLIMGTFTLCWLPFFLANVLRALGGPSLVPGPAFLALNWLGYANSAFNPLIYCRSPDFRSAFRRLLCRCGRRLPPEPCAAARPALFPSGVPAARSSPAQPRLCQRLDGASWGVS
Procedure, shortened: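 Reactions were stopped with 0.2N HCl and neutralised, and cAMP was measured by SPA. Activity is expressed as percent of the maximal 10^−5 M isoproterenol response.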

Compound | IA(β3) [1] | melting point
CS(=O)(=O)Nc1cc([C@@H](O)CNC2CCN(c3ccc(-c4nnn(CC(=O)O)n4)cc3)CC2)ccc1O [Example 100, [5-(4-{4-[((2R)-2-Hydroxy-2-{4-hydroxy-3-[(methylsulfonyl)amino]phenyl}ethyl)amino]-1-piperidinyl}phenyl)-2H-tetraazol-2-yl]acetic acid] | 0.9 | > 240 °C (dec.)
O=C1NC(=O)C(Cc2ccc(N3CCC(NC[C@H](O)COc4cccnc4)CC3)cc2)S1 (stereo partly drawn) [Example 125, 5-(4-{4-[(2S)-2-Hydroxy-3-(pyridin-3-yloxy)-propylamino]-piperidin-1-yl}-benzyl)-thiazolidine-2,4-dione] | 0.36 | 130 to 132 °C
O=C1NC(=O)C(Cc2ccc(N3CCC(NC[C@@H](O)c4cccnc4)CC3)cc2)S1 (stereo partly drawn) [Example 131, 5-{4-[4-((2S)-2-Hydroxy-2-pyridin-3-yl-ethylamino)-piperidin-1-yl]-benzyl}-thiazolidine-2,4-dione] | 0.52 | > 88 °C (dec.)
O=C1NC(=O)C(Cc2ccc(N3CCC(NC[C@H](O)c4cccnc4)CC3)cc2)S1 (stereo partly drawn) [Example 136, 5-{4-[4-((2R)-2-Hydroxy-2-pyridin-3-yl-ethylamino)-piperidin-1-yl]-benzyl}-thiazolidine-2,4-dione] | 0.9 | 87 °C (dec.)
CS(=O)(=O)Nc1cc([C@@H](O)CNC2CCN(c3ccc(-c4cc(=O)[nH][nH]4)cc3)CC2)ccc1O [Example 146, N-[(2R)-2-Hydroxy-5-(1-hydroxy-2-{1-[4-(5-oxo-2,5-dihydro-1H-pyrazol-3-yl)-phenyl]-piperidin-4-ylamino}-ethyl)-phenyl]-methanesulfonamide] | 0.91 | 225 to 227 °C
CCOC(=O)c1ccc(N2CCC(NC[C@H](O)COc3cccc4[nH]c(=O)[nH]c34)CC2)cc1 [Example 179] | 0.85 | > 170 °C (dec.)
CS(=O)(=O)Nc1cc([C@@H](O)CNC2CCN(c3ccc(CC(=O)O)cc3)CC2)ccc1O [Example 182, (4-{4-[(2R)-2-Hydroxy-2-(4-hydroxy-3-methanesulfonylamino-phenyl)-ethylamino]-piperidin-1-yl}-phenyl)-acetic acid] | 0.86 | > 140 °C (dec.)
CCOC(=O)/C=C/c1ccc(N2CCC(NC[C@H](O)c3ccc(O)c(NS(C)(=O)=O)c3)CC2)cc1 [Example 183, (E)-3-(4-{4-[(2R)-2-Hydroxy-2-(4-hydroxy-3-methanesulfonylamino-phenyl)-ethylamino]-piperidin-1-yl}-phenyl)-acrylic acid ethyl ester] | 0.84 | 103 to 106 °C
CS(=O)(=O)Nc1cc([C@@H](O)CNC2CCN(c3ccc(CCC(=O)O)cc3)CC2)ccc1O [Example 184, 3-(4-{4-[(R)-2-Hydroxy-2-(4-hydroxy-3-methanesulfonylamino-phenyl)-ethylamino]-piperidin-1-yl}-phenyl)-propionic acid] | 1.1 | 130 to 133 °C
CS(=O)(=O)Nc1cc([C@@H](O)CNC2CCN(c3ccc(COCC(=O)O)cc3)CC2)ccc1O [Example 185, (4-{4-[(2R)-2-Hydroxy-2-(4-hydroxy-3-methanesulfonylamino-phenyl)-ethylamino]-piperidin-1-yl}-benzyloxy)-acetic acid] | 0.69 | > 145 °C (dec.)
CCOC(=O)CCc1ccc(N2CCC(NC[C@H](O)c3ccc(O)c(NS(C)(=O)=O)c3)CC2)cc1 [Example 187, 3-(4-{4-[(2R)-2-Hydroxy-2-(4-hydroxy-3-methanesulfonylamino-phenyl)-ethylamino]-piperidin-1-yl}-phenyl)-propionic acid ethyl ester] | 1.03 | 76 to 78 °C
CCOC(=O)C(=Cc1ccc(N2CCC(NCC(O)c3ccc(O)c(NS(C)(=O)=O)c3)CC2)cc1)C(=O)OCC (stereo not shown) [Example 188, 2-(4-{4-[2-Hydroxy-2-(4-hydroxy-3-methanesulfonylamino-phenyl)-ethylamino]-piperidin-1-yl}-benzylidene)-malonic acid diethyl ester] | 0.91 | > 80 °C (dec.)

The next lines start with the values.

IA(β3) [1] | melting point | Compound
1.12 | > 75 °C (dec.) | CS(=O)(=O)Nc1cc([C@@H](O)CNC2CCN(c3ccc(C(N)=O)cc3)CC2)ccc1O [Example 190, 4-{4-[(2R)-2-Hydroxy-2-(4-hydroxy-3-methanesulfonylamino-phenyl)-ethylamino]-piperidin-1-yl}-benzamide]
1 | > 70 °C (dec.) | CS(=O)(=O)Nc1cc([C@@H](O)CNC2CCN(c3ccc(C(=O)NOCc4ccccc4)cc3)CC2)ccc1O [Example 191, N-Benzyloxy-4-{4-[(2R)-2-hydroxy-2-(4-hydroxy-3-methanesulfonylamino-phenyl)-ethylamino]-piperidin-1-yl}-benzamide]
0.97 | > 75 °C (dec.) | CCOC(=O)CC[C@H](NC(=O)c1ccc(N2CCC(NC[C@H](O)c3ccc(O)c(NS(C)(=O)=O)c3)CC2)cc1)C(=O)OCC [Example 192, Diethyl(2S)-2-[(4-{4-[((2R)-2-hydroxy-2-{4-hydroxy-3-[(methylsulfonyl)amino]phenyl}ethyl)amino]-1-piperidinyl}benzoyl)amino]pentanedioate]
0.9 | > 95 °C (dec.) | CCOC(=O)CCNC(=O)c1ccc(N2CCC(NC[C@H](O)c3ccc(O)c(NS(C)(=O)=O)c3)CC2)cc1 [Example 193, Ethyl3-[(4-{4-[((2R)-2-hydroxy-2-{4-hydroxy-3-[(methylsulfonyl)amino]phenyl}-ethyl)amino]-1-piperidinyl}benzoyl)amino]propanoate.]
0.88 | > 230 °C (dec.) | CS(=O)(=O)Nc1cc([C@@H](O)CNC2CCN(c3ccc(C(=O)N[C@@H](CCC(=O)O)C(=O)O)cc3)CC2)ccc1O [Example 194, (2S)-2-[(4-{4-[((2R)-2-Hydroxy-2-{4-hydroxy-3-[(methylsulfonyl)amino]phenyl}-ethyl)amino]-1-piperidinyl}benzoyl)amino]pentanedioic acid]
0.98 | > 170 °C (dec.) | CS(=O)(=O)Nc1cc([C@@H](O)CNC2CCN(c3ccc(C(=O)NCCC(=O)O)cc3)CC2)ccc1O [Example 195, N-(4-{4-[((2R)-2-Hydroxy-2-{4-hydroxy-3-[(methylsulfonyl)amino]phenyl}ethyl)amino]-1-piperidinyl}benzoyl)-bete-alanine]
1.1 | > 140 °C (dec.) | CCOC(=O)CNC(=O)c1ccc(N2CCC(NC[C@H](O)c3ccc(O)c(NS(C)(=O)=O)c3)CC2)cc1 [Example 196, Ethyl[(4-{4-[((2R)-2-hydroxy-2-{4-hydroxy-3-[(methylsulfonyl)amino]phenyl}ethyl)amino]-1-piperidinyl}benzoyl)amino]acetate]
0.97 | > 85 °C (dec.) | CCOC(=O)[C@H](CC(C)C)NC(=O)c1ccc(N2CCC(NC[C@H](O)c3ccc(O)c(NS(C)(=O)=O)c3)CC2)cc1 [Example 198, (2S)-2-(4-{4-[(2R)-2-Hydroxy-2-(4-hydroxy-3-methanesulfonylamino-phenyl)-ethylamino]-piperidin-1-yl}-benzoylamino)-4-methyl-pentanoic acid ethyl ester:]
